Results: US9975903B2, “Condensed heterocyclic compound” (Takeda Pharmaceutical Company Limited, priority 2014, dated 2018)
Counter-ions that a name gives are not always drawn.

Molecular target: T1, Human recombinant enteropeptidase (Homo sapiens, UniProt P98073)
T1 construct: purchased ITSI-Biosciences LLC #REN-260
Assay: Human enteropeptidase inhibitory activity (Test Example 1)
Format: biochemical
Settings: 3.3 μM test compound; inhibition rate from fluorescence intensity at 2 hours after the start of the reaction; read-out: 3.3 μM Inhibition
Procedure: Human recombinant enteropeptidase (#REN-260, ITSI-Biosciences LLC) was diluted with an assay buffer (50 mM Tricine, pH 8.0, 0.01 (w/v) %, Tween 20, 10 mM CaCl2) to prepare a 24 mU/mL enzyme solution. Subsequently, 5FAM-Abu-Gly-Asp-Asp-Asp-Lys-Ile-Val-Gly-Gly-Lys(CPQ2)-Lys-Lys-NH2 (SEQ ID NO: 1, purity: 97.2%, CPC Scientific Inc.) was diluted with the assay buffer to prepare a 2.1 μM substrate solution. A test compound is dissolved in DMSO into a 1 mM solution, and the solution was diluted by 100-fold with the assay buffer to give a compound solution. To a 384-well black plate (#784076, Greiner Bio-One), 5 μL of the compound solution and 5 μL of the substrate solution were added and mixed, and 5 μL of the enzyme solution was then added to the mixture, followed by mixing to start the reaction. The fluorescence intensity was measured with a fluorescence plate reader EnVision (The Perkin-Elmer Corp.) at an excitation wavelength of 485 nm and a fluorescence wavelength of 535 nm. The same reaction as above except that the test compound was not contained was performed (test compound non-addition group). Furthermore, the same reaction as above except that the test compound and the enzyme were not contained was performed (control group). The inhibition rate was calculated using the fluorescence intensity at 2 hours after the start of the reaction by the following expression: Inhibition rate (%)=(1−((fluorescence intensity of test compound addition group)−(fluorescence intensity of control group))/((fluorescence intensity of test compound non-addition group)−(fluorescence intensity of control group)))×100

T1 sequence (P98073 whole entry): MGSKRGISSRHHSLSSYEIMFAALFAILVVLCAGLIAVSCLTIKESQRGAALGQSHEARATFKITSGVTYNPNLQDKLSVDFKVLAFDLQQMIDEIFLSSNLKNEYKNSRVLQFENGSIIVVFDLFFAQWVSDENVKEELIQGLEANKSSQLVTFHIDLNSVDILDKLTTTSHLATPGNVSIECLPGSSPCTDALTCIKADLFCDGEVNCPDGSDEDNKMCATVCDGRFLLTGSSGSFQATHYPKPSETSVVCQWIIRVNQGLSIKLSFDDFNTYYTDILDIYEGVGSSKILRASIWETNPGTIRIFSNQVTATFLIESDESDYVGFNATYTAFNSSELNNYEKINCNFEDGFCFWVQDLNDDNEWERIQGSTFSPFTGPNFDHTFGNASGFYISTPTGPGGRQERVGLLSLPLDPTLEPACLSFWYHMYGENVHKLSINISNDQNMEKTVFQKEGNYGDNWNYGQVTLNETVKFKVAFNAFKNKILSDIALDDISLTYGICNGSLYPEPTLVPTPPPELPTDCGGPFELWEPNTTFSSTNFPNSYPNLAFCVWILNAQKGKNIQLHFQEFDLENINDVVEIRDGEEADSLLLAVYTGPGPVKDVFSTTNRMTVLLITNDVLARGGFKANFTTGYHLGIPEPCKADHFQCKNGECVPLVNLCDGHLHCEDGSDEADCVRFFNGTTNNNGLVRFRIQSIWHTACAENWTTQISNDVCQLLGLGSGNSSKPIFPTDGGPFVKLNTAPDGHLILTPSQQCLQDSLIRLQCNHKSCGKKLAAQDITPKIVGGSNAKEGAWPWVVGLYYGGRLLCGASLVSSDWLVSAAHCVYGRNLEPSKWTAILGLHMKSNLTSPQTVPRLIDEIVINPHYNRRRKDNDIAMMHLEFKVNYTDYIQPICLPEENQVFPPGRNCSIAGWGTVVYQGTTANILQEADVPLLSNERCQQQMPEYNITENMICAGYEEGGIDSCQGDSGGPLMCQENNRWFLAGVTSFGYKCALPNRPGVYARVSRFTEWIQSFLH

## N=C(N)c1ccc2c(c1)CCc1cc(CCC(=O)N[C@@H](CC(=O)O)C(=O)O)ccc1C(=O)O2 [Example 60, N-(3-(2-carbamimidoyl-6-oxo-11,12-dihydro-6H-dibenzo[b,f]oxocin-9-yl)propanoyl)-L-aspartic acid]
  inhibition at 3.3 µM: 59%

## N=C(N)c1ccc2c(c1)CCc1c(CCC(=O)N[C@@H](CC(=O)O)C(=O)O)cccc1C(=O)O2 [Example 61, N-(3-(2-Carbamimidoyl-6-oxo-11,12-dihydro-6H-dibenzo[b,f]oxocin-10-yl)propanoyl)-L-aspartic acid trifluoroacetate]
  inhibition at 3.3 µM: 72%

## N=C(N)c1ccc2c(c1)CCc1c(C(=O)N[C@@H](CC(=O)O)C(=O)O)cccc1C(=O)O2 [Example 62, N-((2-Carbamimidoyl-6-oxo-11,12-dihydro-6H-dibenzo[b,f]oxocin-10-yl)carbonyl)-L-aspartic acid trifluoroacetate]
  inhibition at 3.3 µM: 84%

## N=C(N)c1ccc2c(c1)CCc1cc(C(=O)N[C@@H](CC(=O)O)C(=O)O)ccc1C(=O)O2 [Example 63, N-((2-carbamimidoyl-6-oxo-11,12-dihydro-6H-dibenzo[b,f]oxocin-9-yl)carbonyl)-L-aspartic acid]
  inhibition at 3.3 µM: 93%

## N=C(N)Nc1ccc2c(c1)CCCOc1c(cccc1C(=O)N(CCC(=O)O)CC(=O)O)OC2=O [Example 64, N-((10-carbamimidamido-13-oxo-6,7,8,13-tetrahydro-dibenzo[b,f] [1,4]dioxecin-4-yl)carbonyl)-N-(carboxymethyl)-beta-alanine]
  inhibition at 3.3 µM: 101%

## N=C(N)Nc1ccc2c(c1)CCCOc1c(cccc1C(=O)N(CC(=O)O)[C@@H](CC(N)=O)C(=O)O)OC2=O [Example 65, N^2-((10-Carbamimidamido-13-oxo-6,7,8,13-tetrahydrodibenzo[b,f][1,4]dioxecin-4-yl)carbonyl)-N^2-(carboxymethyl)-L-asparagine]
  inhibition at 3.3 µM: 100%

## N=C(N)Nc1ccc2c(c1)CCCOc1c(cc(Cl)cc1C(=O)N[C@@H](CC(=O)O)C(=O)O)OC2=O [Example 66, N-((10-carbamimidamido-2-chloro-13-oxo-6,7,8,13-tetrahydro-dibenzo[b,f] [1,4]dioxecin-4-yl)carbonyl)-L-aspartic acid]
  inhibition at 3.3 µM: 101%

## COc1cc2c(c(C(=O)N[C@@H](CC(=O)O)C(=O)O)c1)CCCCc1cc(NC(=N)N)ccc1C(=O)O2 [Example 67, N-((3-Carbamimidamido-11-methoxy-14-oxo-5,7,8,14-tetrahydro-6H-dibenzo[b,h]oxecin-9-yl)carbonyl)-L-aspartic acid]
  inhibition at 3.3 µM: 100%

## N=C(N)Nc1ccc2c(c1)CCCOc1ccccc1OC2=O [Example 68, 1-(13-Oxo-6,7,8,13-tetrahydrodibenzo[b,f][1,4]dioxecin-10-yl)guanidine trifluoroacetate]
  inhibition at 3.3 µM: 83%

## N=C(N)c1ccc2c(c1)CCCCc1cc(C(=O)N[C@@H](CC(=O)O)C(=O)O)ccc1C(=O)O2 [Example 69, N-((10-Carbamimidoyl-14-oxo-5,7,8,14-tetrahydro-6H-dibenzo[b,h]oxecin-3-yl)carbonyl)-L-aspartic acid trifluoroacetate]
  inhibition at 3.3 µM: 100%

## Cc1cc2c(c(C(=O)N[C@@H](CC(=O)O)C(=O)O)c1)OCCCc1cc(NC(=N)N)ccc1C(=O)O2 [Example 70, N-((10-carbamimidamido-2-methyl-13-oxo-6,7,8,13-tetrahydro-dibenzo[b,f] [1,4]dioxecin-4-yl)carbonyl)-L-aspartic acid]
  inhibition at 3.3 µM: 102%

## N=C(N)Nc1ccc2c(c1)CCCOc1c(cccc1C(=O)N(CC(=O)O)Cc1cccc(C(=O)O)c1)OC2=O [Example 71, 3-((((10-Carbamimidamido-13-oxo-6,7,8,13-tetrahydrodibenzo[b,f][1,4]dioxecin-4-yl)carbonyl) (carboxymethyl)amino)methyl)benzoic acid]
  inhibition at 3.3 µM: 100%

## Cc1cc2c(c(C(=O)N[C@@H](CC(=O)O)C(=O)O)c1)CCCCc1cc(NC(=N)N)ccc1C(=O)O2 [Example 72, N-((3-carbamimidamido-11-methyl-14-oxo-5,7,8,14-tetrahydro-6H-dibenzo[b,h]oxecin-9-yl)carbonyl)-L-aspartic acid]
  inhibition at 3.3 µM: 101%

## N=C(N)Nc1ccc2c(c1)CCCc1cc(C(=O)N[C@@H](CC(=O)O)C(=O)O)ccc1OC2=O [Example 73, N-((9-carbamimidamido-6-oxo-6,11,12,13-tetrahydro-dibenzo[b,g]oxonin-2-yl)carbonyl)-L-aspartic acid]
  inhibition at 3.3 µM: 100%

## N=C(N)Nc1ccc2c(c1)CCCCc1c(cccc1C(=O)NC(CC(=O)O)CC(=O)O)OC2=O [Example 74, 3-(((3-carbamimidamido-14-oxo-5,7,8,14-tetrahydro-6H-dibenzo[b,h]oxecin-9-yl)carbony)amino)pentanedioic acid]
  inhibition at 3.3 µM: 101%

## N=C(N)Nc1ccc2c(c1)CCCCCc1c(cccc1C(=O)N[C@@H](CC(=O)O)C(=O)O)OC2=O [Example 76, N-((3-Carbamimidamido-15-oxo-5,6,7,8,9,15-hexahydrodibenzo[b,i]hexacycloundecin-10-yl)carbonyl)-L-aspartic acid]
  inhibition at 3.3 µM: 101%

## N=C(N)Nc1ccc2c(c1)CCCCCCc1c(cccc1C(=O)N[C@@H](CC(=O)O)C(=O)O)OC2=O [Example 77, N-((3-Carbamimidamido-16-oxo-5,7,8,9,10,16-hexahydro-6H-dibenzo[b,j]oxacyclododecin-11-yl)carbonyl)-L-aspartic acid]
  inhibition at 3.3 µM: 99%

## N=C(N)Nc1ccc2c(c1)CCCOc1ccc(CCC(=O)N[C@@H](CC(=O)O)C(=O)O)cc1OC2=O [Example 78, N-(3-(10-carbamimidamido-13-oxo-6,7,8,13-tetrahydro-dibenzo[b,f] [1,4]dioxecin-2-yl)propanoyl) aspartic acid]
  inhibition at 3.3 µM: 93%

## N=C(N)Nc1ccc2c(c1)OCCCc1c(CCC(=O)N[C@@H](CC(=O)O)C(=O)O)cccc1OC2=O [Example 79, N-(3-(3-Carbamimidamido-14-oxo-7,8-dihydro-6H,14H-dibenzo[b,f][1,5]dioxecin-9-yl)propanoyl)-L-aspartic acid]
  inhibition at 3.3 µM: 101%

## N=C(N)Nc1ccc2c(c1)CCCOc1cc(C(=O)N[C@@H](CC(=O)O)C(=O)O)ccc1OC2=O [Example 81, N-((10-carbamimidamido-13-oxo-6,7,8,13-tetrahydro-dibenzo[b,f] [1,4]dioxecin-3-yl)carbonyl)-L-aspartic acid]
  inhibition at 3.3 µM: 101%

## N=C(N)Nc1ccc2c(c1)CCCCOc1c(cccc1C(=O)N[C@@H](CC(=O)O)C(=O)O)OC2=O [Example 82, N-((11-carbamimidamido-14-oxo-7,8,9,14-tetrahydro-6H-dibenzo[b,f][1,4]dioxacycloundecin-4-yl)carbonyl)-L-aspartic acid]
  inhibition at 3.3 µM: 102%

## N=C(N)Nc1ccc2c(c1)CCCCc1c(CCC(=O)N[C@@H](CC(=O)O)C(=O)O)cccc1OC2=O [Example 83, N-(3-(3-carbamimidamido-14-oxo-5,7,8,14-tetrahydro-6H-dibenzo[b,h]oxecin-9-yl)propanoyl)-L-aspartic acid]
  inhibition at 3.3 µM: 102%

## N=C(N)Nc1ccc2c(c1)OCCCc1c(cccc1C(=O)N[C@@H](CC(=O)O)C(=O)O)OC2=O [Example 84, N-((3-carbamimidamido-14-oxo-7,8-dihydro-6H,14H-dibenzo[b,f][1,5]dioxecin-9-yl)carbonyl)-L-aspartic acid]
  inhibition at 3.3 µM: 101%

## CN(C(=O)c1cccc2c1OCCCc1cc(NC(=N)N)ccc1C(=O)O2)[C@@H](CC(=O)O)C(=O)O [Example 85, N-((10-carbamimidamido-13-oxo-6,7,8,13-tetrahydrodibenzo[b,f] [1,4]dioxecin-4-yl)carbonyl)-N-methyl-L-aspartic acid]
  inhibition at 3.3 µM: 101%

## N=C(N)Nc1ccc2c(c1)CCCOc1c(cccc1C(=O)N[C@@H](CO)C(=O)O)OC2=O [Example 86, N-((10-carbamimidamido-13-oxo-6,7,8,13-tetrahydro-dibenzo[b,f] [1,4]dioxecin-4-yl)carbonyl)-L-serine]
  inhibition at 3.3 µM: 101%

## N=C(N)Nc1ccc2c(c1)CCCOc1c(cccc1C(=O)N[C@@H](Cc1ccccc1)C(=O)O)OC2=O [Example 87, N-((10-carbamimidamido-13-oxo-6,7,8,13-tetrahydro-dibenzo[b,f] [1,4]dioxecin-4-yl)carbonyl)-L-phenylalanine]
  inhibition at 3.3 µM: 101%

## N=C(N)Nc1ccc2c(c1)CCCOc1c(cccc1C(=O)NCCC(=O)O)OC2=O [Example 88, N-((10-carbamimidamido-13-oxo-6,7,8,13-tetrahydro-dibenzo[b,f] [1,4]dioxecin-4-yl)carbonyl)-beta-alanine]
  inhibition at 3.3 µM: 102%

## N=C(N)Nc1ccc2c(c1)CCCOc1c(cccc1C(=O)NCC(=O)O)OC2=O [Example 89, N-((10-carbamimidamido-13-oxo-6,7,8,13-tetrahydro-dibenzo[b,f] [1,4]dioxecin-4-yl)carbonyl)glycine]
  inhibition at 3.3 µM: 101%

## C[C@@H](O)[C@H](NC(=O)c1cccc2c1OCCCc1cc(NC(=N)N)ccc1C(=O)O2)C(=O)O [Example 90, N-((10-carbamimidamido-13-oxo-6,7,8,13-tetrahydro-dibenzo[b,f] [1,4]dioxecin-4-yl)carbonyl)-L-threonine]
  inhibition at 3.3 µM: 101%
